Activity calls are given as the source filed them. No cut-off for these calls is given here.
Columns and labels:
[1] = system: Mus musculus; experiment: Antiobesity activity in Sabra mouse assessed as reduction in body weight at 10 mg/kg, ip administered on day 6 to 10 measured on day 16 relative to control; format: functional; set-up: scale not given: the % may be the effect or the level left; conditions: route intraperitoneal
[2] = system: Mus musculus; experiment: Antiobesity activity in Sabra mouse assessed as reduction in body weight at 1 mg/kg, ip administered on day 0, 10, 11, 12, 24, 29 measured on day 12 relative to control; format: functional; set-up: scale not given: the % may be the effect or the level left; conditions: route intraperitoneal
[3] = biological target: T1, Fatty-acid amide hydrolase 1 (Rattus norvegicus) (UniProt P97612); experiment: Inhibition of rat brain FAAH using [3H]anandamide as substrate at 10 uM preincubated for 15 mins before substrate addition relative to control
T1 sequence (whole entry): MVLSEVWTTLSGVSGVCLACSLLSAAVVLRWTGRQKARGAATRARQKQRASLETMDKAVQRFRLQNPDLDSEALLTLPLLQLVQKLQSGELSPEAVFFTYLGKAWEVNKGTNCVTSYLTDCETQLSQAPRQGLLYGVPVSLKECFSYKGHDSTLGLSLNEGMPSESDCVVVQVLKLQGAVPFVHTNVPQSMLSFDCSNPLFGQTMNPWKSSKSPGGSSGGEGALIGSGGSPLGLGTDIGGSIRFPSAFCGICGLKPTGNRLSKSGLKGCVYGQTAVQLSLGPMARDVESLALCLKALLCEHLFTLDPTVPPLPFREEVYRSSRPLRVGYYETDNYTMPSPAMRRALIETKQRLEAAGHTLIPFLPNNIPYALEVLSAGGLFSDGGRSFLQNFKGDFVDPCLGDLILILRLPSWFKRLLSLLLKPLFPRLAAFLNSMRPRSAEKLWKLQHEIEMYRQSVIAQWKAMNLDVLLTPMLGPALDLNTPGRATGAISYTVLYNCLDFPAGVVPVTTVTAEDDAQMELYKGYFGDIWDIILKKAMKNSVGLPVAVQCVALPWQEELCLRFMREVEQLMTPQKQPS

[4] = system: Hypothalamus; experiment: Effect on 5HT1A gene expression in Sabra mouse hypothalamus assessed as change in mRNA level at 1 mg/kg, ip administered on day 8, 9, 10, 11, 14, 18, 24 and 32 by RT-PCR analysis relative to GAPDH; format: functional; conditions: route intraperitoneal
[5] = biological target: Cannabinoid receptor 1 (Homo sapiens) (UniProt P21554); experiment: Displacement of [3H]SR141716A from human CB1 receptor expressed in rat Chem-1 cell membrane at 10 uM relative to control; format: cell membranes
Chain of Cannabinoid receptor 1 (Homo sapiens) (P21554 whole entry): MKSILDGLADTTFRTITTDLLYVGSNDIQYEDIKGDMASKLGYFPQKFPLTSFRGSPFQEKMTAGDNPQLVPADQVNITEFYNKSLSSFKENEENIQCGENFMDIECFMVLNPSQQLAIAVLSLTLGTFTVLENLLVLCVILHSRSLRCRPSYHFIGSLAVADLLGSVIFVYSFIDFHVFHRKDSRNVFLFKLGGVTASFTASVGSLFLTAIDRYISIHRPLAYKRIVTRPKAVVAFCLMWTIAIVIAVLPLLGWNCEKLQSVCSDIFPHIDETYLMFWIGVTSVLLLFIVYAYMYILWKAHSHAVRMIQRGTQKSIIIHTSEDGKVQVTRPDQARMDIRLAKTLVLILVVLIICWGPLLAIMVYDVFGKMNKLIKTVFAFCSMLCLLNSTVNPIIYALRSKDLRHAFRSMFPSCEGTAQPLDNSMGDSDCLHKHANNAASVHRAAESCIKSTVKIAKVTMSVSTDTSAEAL

[6] = system: Mus musculus; experiment: Antiobesity activity in Sabra mouse assessed as change in food consumption at 1 mg/kg, ip administered on day 8, 9, 10, 11, 14, 18, 24 and 32 measured after 5 weeks relative to control; format: functional; conditions: route intraperitoneal
[7] = system: Mus musculus; experiment: Antiobesity activity in Sabra mouse assessed as change in food consumption at 1 mg/kg, ip administered on day 8, 9, 10, 11, 14, 18, 24 and 32 measured after 4 weeks relative to control; format: functional; conditions: route intraperitoneal
[8] = system: Mus musculus; experiment: Antiobesity activity in high fat diet fed C57BL/6 mouse assessed as reduction food consumption at 1 mg/kg, ip administered on day 3, 6, 8, 9, 10 measured after week 2 relative to control; format: functional; set-up: scale not given: the % may be the effect or the level left; conditions: route intraperitoneal
[9] = system: Mus musculus; experiment: Antiobesity activity in leptin-deficient ob/ob mouse assessed as reduction in body weight at 10 mg/kg via oral gavage; format: functional, organism-based; set-up: dose 10 mg/kg
[10] = system: Mus musculus; experiment: Antiobesity activity in C57BL/6 mouse assessed as weight loss at 5 mg/kg, ip administered on day 1, 4, 5, 7, 17, 15, 19 measured on day 9 relative to control; format: functional; conditions: route intraperitoneal
[11] = system: Hypothalamus; experiment: Effect on CAMKK2 gene expression in Sabra mouse hypothalamus assessed as change in mRNA level at 1 mg/kg, ip administered on day 8, 9, 10, 11, 14, 18, 24 and 32 by RT-PCR analysis relative to GAPDH; format: functional; conditions: route intraperitoneal
[12] = system: Mus musculus; experiment: Antiobesity activity in Sabra mouse assessed as change in body weight at 1 mg/kg, ip administered on day 8, 9, 10, 11, 14, 18, 24 and 32 measured on day 9 relative to control; format: functional; conditions: route intraperitoneal
[13] = biological target: Cannabinoid receptor 2 (Homo sapiens) (UniProt P34972); experiment: Displacement of [3H]WIN-55,212-2 from human recombinant CB2 receptor expressed in CHO-K1 cells at 10 uM relative to control; format: cell-based
Chain of Cannabinoid receptor 2 (Homo sapiens) (P34972 whole entry): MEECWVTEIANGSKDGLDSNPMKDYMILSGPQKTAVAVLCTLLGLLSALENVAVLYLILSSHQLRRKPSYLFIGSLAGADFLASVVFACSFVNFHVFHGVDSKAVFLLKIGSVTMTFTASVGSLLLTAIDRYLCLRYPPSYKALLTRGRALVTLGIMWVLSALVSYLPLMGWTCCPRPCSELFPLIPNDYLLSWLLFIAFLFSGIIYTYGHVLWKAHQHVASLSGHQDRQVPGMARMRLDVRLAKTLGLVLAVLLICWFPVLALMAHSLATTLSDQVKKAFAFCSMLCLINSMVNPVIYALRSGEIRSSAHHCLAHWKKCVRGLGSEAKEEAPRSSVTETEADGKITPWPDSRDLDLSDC

[14] = system: Mus musculus; experiment: Antiobesity activity in high fat diet fed C57BL/6 mouse assessed as reduction in body weight at 1 mg/kg, ip administered on day 3, 6, 8, 9, 10 measured on day 7 relative to control; format: functional; set-up: scale not given: the % may be the effect or the level left; conditions: route intraperitoneal
[15] = system: Hypothalamus; experiment: Effect on CART gene expression in Sabra mouse hypothalamus assessed as change in mRNA level at 1 mg/kg, ip administered on day 8, 9, 10, 11, 14, 18, 24 and 32 by RT-PCR analysis relative to GAPDH; format: functional; conditions: route intraperitoneal
[16] = system: Hypothalamus; experiment: Effect on NPY gene expression in Sabra mouse hypothalamus assessed as change in mRNA level at 1 mg/kg, ip administered on day 8, 9, 10, 11, 14, 18, 24 and 32 by RT-PCR analysis relative to GAPDH; format: functional; conditions: route intraperitoneal
[17] = system: Mus musculus; experiment: Antiobesity activity in Sabra mouse assessed as reduction in body weight at 1 mg/kg, ip administered on day 0, 10, 11, 12, 24, 29 measured on day 26 relative to control; format: functional; set-up: scale not given: the % may be the effect or the level left; conditions: route intraperitoneal
[18] = system: Mus musculus; experiment: Antiobesity activity in Sabra mouse assessed as change in body weight at 1 mg/kg, ip administered on day 8, 12 and 43 measured on day 8 relative to control; format: functional; conditions: route intraperitoneal
[19] = system: Mus musculus; experiment: Antiobesity activity in high fat diet fed C57BL/6 mouse assessed as reduction food consumption at 1 mg/kg, ip administered on day 3, 6, 8, 9, 10 measured after week 1 relative to control; format: functional; set-up: scale not given: the % may be the effect or the level left; conditions: route intraperitoneal
[20] = system: Hypothalamus; experiment: Effect on POMC gene expression in Sabra mouse hypothalamus assessed as increase in mRNA level at 1 mg/kg, ip administered on day 6 to 10 measured on day 16 by RT-PCR analysis relative to control; format: functional; conditions: route intraperitoneal
[21] = biological target: T2, Peroxisome proliferator-activated receptor alpha (Homo sapiens) (UniProt Q07869); experiment: Binding affinity to human recombinant PPARalpha expressed in Escherichia coli at 10 uM for 16 hrs by spectrofluorimetric analysis relative to control
T2 sequence (whole entry): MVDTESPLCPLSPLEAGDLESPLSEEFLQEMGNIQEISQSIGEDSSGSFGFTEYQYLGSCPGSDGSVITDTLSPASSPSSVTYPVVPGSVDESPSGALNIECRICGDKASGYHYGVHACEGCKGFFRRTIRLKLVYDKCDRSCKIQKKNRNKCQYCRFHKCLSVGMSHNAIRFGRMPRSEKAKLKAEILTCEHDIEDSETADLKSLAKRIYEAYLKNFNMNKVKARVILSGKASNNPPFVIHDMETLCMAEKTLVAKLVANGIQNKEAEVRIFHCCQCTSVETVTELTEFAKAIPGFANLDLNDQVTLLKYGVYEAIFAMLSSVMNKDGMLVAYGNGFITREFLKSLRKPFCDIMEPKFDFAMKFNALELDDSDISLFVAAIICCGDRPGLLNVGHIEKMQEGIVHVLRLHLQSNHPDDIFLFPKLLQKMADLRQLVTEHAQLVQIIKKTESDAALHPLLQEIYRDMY

**Q.** For `CCCCCCCC/C=C\CCCCCCCC(=O)N[C@H](CO)C(C)C`, which Activity [1] is on record?
**A.** 6.4%

**Q.** And the Activity [2]?
**A.** -1.79%

**Q.** And the inhibition [3]?
**A.** 14%

**Q.** And the Activity [4]?
**A.** -20%

**Q.** What about the inhibition [5] of the same molecule?
**A.** 35%

**Q.** And the Activity [6]?
**A.** 85.9%

**Q.** And the Activity [7]?
**A.** 90.3%

**Q.** What about the Activity [8] of the same molecule?
**A.** 45%

**Q.** And the Activity [9]?
**A.** inactive

**Q.** What about the Activity [10] of the same molecule?
**A.** -3%

**Q.** And the Activity [11]?
**A.** -18%

**Q.** What about the Activity [12] of the same molecule?
**A.** -2.2%

**Q.** And the inhibition [13]?
**A.** 18%

**Q.** What about the Activity [14] of the same molecule?
**A.** -3.2%

**Q.** What about the Activity [15] of the same molecule?
**A.** 15%

**Q.** And the Activity [16]?
**A.** -11%

**Q.** And the Activity [17]?
**A.** -4.05%

**Q.** What about the Activity [18] of the same molecule?
**A.** 0.7%

**Q.** What about the Activity [19] of the same molecule?
**A.** 22%

**Q.** And the Activity [20]?
**A.** 50%

**Q.** And the Activity [21]?
**A.** 2%

From ChEMBL document CHEMBL2321853, “Novel acylethanolamide derivatives that modulate body weight through enhancement of hypothalamic pro-opiomelanocortin (POMC) and/or decreased neuropeptide Y (NPY)” (J Med Chem, 2013)
